Results reported in patent US20150250810A1, “D-TAGATOSE-BASED COMPOSITIONS AND METHODS FOR PREVENTING AND TREATING ATHEROSCLEROSIS, METABOLIC SYNDROME, AND SYMPTOMS THEREOF” (University of Kentucky Research Foundation, priority 2008, published 2015).

Assays:
LDLr-/- mice [1] = assay: Body weight and adipose tissue characteristics in hypercholesterolemic mice fed sucrose- or TAG-enriched diet for sixteen weeks; format: in vivo; conditions: for macrophage positive F4/80 immunostaining in adipose sections / adipocyte size: study end point; for body weight: enriched diet, sixteen weeks; for development of obesity (weight gain, adiposity, adipocyte hypertrophy): overall study conclusion
Excerpt: Low-density lipoprotein receptor male and female mice (LDLr^-/-) that were approximately eight weeks old were fed either a standard murine diet (“control”), a diet enriched with sucrose, or a diet enriched with TAG for sixteen weeks. The diets enriched with sucrose or TAG contained equivalents amounts (g/kg) of protein, fat and carbohydrate, although due to the differences in energy content between sucrose (˜4.0 kcal/g) and TAG (˜1.5 kcal/g), the TAG-containing diet provided relatively more calories from fat and protein. Before the sixteen week feeding period, sucrose and TAG were introduced to the experimental mice gradually over a three week period, using an increasing ratio of sucrose or TAG diet to the standard murine diet. Food intake was measured for the first four weeks of the sixteen week period and the body weight of the mice was measured weekly. […] At the study end point, retroperitoneal and epidydimal fat was dissected out of the body and stored in formalin and subsequently embedded in paraffin for examination of morphology and immunostaining. Total adipose tissue mass was increased in both male and female mice fed the diet enriched with sucrose when compared to mice fed murine or TAG-enriched diets. For characterization of adipocyte morphology, adipose tissue sections were deparrafinized and stained using hematoxylin and eosin and then analyzed using Image Pro Plus 5.1 (Media Cybernetics, Silver Spring, Md.). […] Macrophage positive F4/80 immunostaining was detected in adipose section from mice fed a sucrose-enriched diet but not in those fed standard murine or TAG-enriched diets.

LDLr-/- mice [2] = assay: Serum cholesterol, triglyceride and lipoprotein concentrations in diet-fed mice (enzymatic assay kits); format: in vivo; conditions: for total serum triglyceride concentration: end of study; for very low density lipoprotein and LDL cholesterol concentrations / total serum cholesterol concentration: male and female mice; for very low density lipoprotein and LDL cholesterol concentrations: compared to control mice; for total serum cholesterol concentration: sucrose vs standard murine and TAG diets, TAG vs sucrose-fed
Excerpt: Low-density lipoprotein receptor male and female mice (LDLr^-/-) that were approximately eight weeks old were fed either a standard murine diet (“control”), a diet enriched with sucrose, or a diet enriched with TAG for sixteen weeks. The diets enriched with sucrose or TAG contained equivalents amounts (g/kg) of protein, fat and carbohydrate, although due to the differences in energy content between sucrose (˜4.0 kcal/g) and TAG (˜1.5 kcal/g), the TAG-containing diet provided relatively more calories from fat and protein. Before the sixteen week feeding period, sucrose and TAG were introduced to the experimental mice gradually over a three week period, using an increasing ratio of sucrose or TAG diet to the standard murine diet.
Total serum cholesterol and plasma triglyceride concentrations were determined for the individual mice at the end of the study using enzymatic assay kits (Wako Pure Chemical, Richmond, Va.).

LDLr-/- mice [3] = assay: Atherosclerosis by en face lesion surface area, immunohistochemistry, infrared microscopy and Gomori Trichome staining; format: in vivo; conditions: for concentration of lipids in atherosclerotic lesions: infrared microscopy of aortic lesions
Excerpt: Low-density lipoprotein receptor male and female mice (LDLr^-/-) that were approximately eight weeks old were fed either a standard murine diet (“control”), a diet enriched with sucrose, or a diet enriched with TAG for sixteen weeks. The diets enriched with sucrose or TAG contained equivalents amounts (g/kg) of protein, fat and carbohydrate, although due to the differences in energy content between sucrose (˜4.0 kcal/g) and TAG (˜1.5 kcal/g), the TAG-containing diet provided relatively more calories from fat and protein. Before the sixteen week feeding period, sucrose and TAG were introduced to the experimental mice gradually over a three week period, using an increasing ratio of sucrose or TAG diet to the standard murine diet. At the study end point, mice were exsanguinated by perfusion through the left ventricle. Aortic tissues from the heart to the […] bifurcation were dissected and fixed overnight in 4% paraformaldehyde made with phosphate buffered solution (“PBS”) and then stored in PBS. Atherosclerosis was quantified by en face analysis of lesion surface area as detailed in Henriques, T A, et al., “Orchidectomy, but not ovariectomy, regulates angiotensin II-induced vascular diseases in apolipoprotein E-deficient mice,” Endocrinology, 145: 3866-3872 (2004). Atherosclerotic lesions were quantified by two independent observers. […] Macrophage infiltration into atherosclerotic areas was assessed using immunohistochemistry staining. […] Collagen may strengthen the fibrous caps in lipid-filled atheromas, preventing rupture.

[4] = system: human patients with type 2 diabetes; assay: Six-month oral TAG dosing study, HbA1c, serum triglycerides, LDL and HDL; format: in vivo; conditions: for average reduction in serum triglycerides / average reduction in HbA1c from the HbA1c of the 2.5 g group: after six months; for decrease in average serum triglycerides from baseline: all TAG-consuming patients
Experimental: Thirty-eight human patients with type 2 diabetes were administered one of three concentrations of TAG orally with meals. […] The treatment duration was six months and patients were randomized to one of the three doses. […] Patients also had to go through an eight week run-in period in which they were on a weight-maintaining diet and a daily exercise program under the supervision of the investigator prior to receiving their TAG dose. Patients with a current or recent history of treatment with any oral or injectable anti-diabetic treatment, as well as patients having one or more episodes of severe hypoglycemia within six months prior to entry into the study, were excluded from the study. Blood samples were taken throughout the experiment and levels of HbAc1, serum triglycerides, LDLs and HDLs were measured.

[5] = humans; cited from earlier work

SMILES	macrophage positive F4/80 immunostaining in adipose sections (LDLr-/- mice [1])	body weight (LDLr-/- mice [1]; female LDLr-/- mice)	adipocyte size (LDLr-/- mice [1]; female mice)	body weight (LDLr-/- mice [1]; male LDLr-/- mice)	adipocyte size (LDLr-/- mice [1]; male mice)	development of obesity (weight gain, adiposity, adipocyte hypertrophy) (LDLr-/- mice [1])	total serum triglyceride concentration (LDLr-/- mice [2]; female mice)	very low density lipoprotein and LDL cholesterol concentrations (LDLr-/- mice [2])	total serum cholesterol concentration (LDLr-/- mice [2])	total serum triglyceride concentration (LDLr-/- mice [2]; male mice)	concentration of lipids in atherosclerotic lesions (LDLr-/- mice [3])	other results
O=C(CO)[C@@H](O)[C@@H](O)[C@H](O)CO [TAG, (3S,4S,5R)-1,3,4,5,6-pentahydroxy-hexan-2-one]	not	24 ± 1 g	31±1 μm	27 ± 0 g	79±3 μm	did not promote substantial weight gain, enhanced adiposity or adipocyte hypertrophy	54 ± 8 mg/dL	only slightly elevated	decreased	162 ± 29 mg/dL	intermediate amount	concentration of collagen in atherosclerotic lesions (LDLr-/- mice [3]; Gomori Trichome staining, compared to sucrose-fed mice): higher concentration; rate of atherosclerosis compared to control mice (LDLr-/- mice [3]; female mice): slightly higher; amount of atherosclerosis compared to control mice (LDLr-/- mice [3]; male mice): did not exhibit a significantly different amount; average improvement of LDL:HDL ratio ([4]; 2.5 g and 5 g groups): 0.3; average reduction in serum triglycerides ([4]; 2.5 g group): 22.2 mg/dL; decrease in LDL levels ([4]; 2.5 g group, end of the first month): about 12.3 mg/dl; average reduction in HbA1c from the HbA1c of the 2.5 g group ([4]; 5 g group): 0.05%; average reduction in serum triglycerides ([4]; 5 g group): 96.8 mg/dL; decrease in LDL levels ([4]; 5 g group, end of the first month): about 23.8 mg/dl; average reduction in HbA1c from the HbA1c of the 2.5 g group ([4]; 7.5 g group): 0.3%; average reduction in serum triglycerides ([4]; 7.5 g group): 2.8 mg/dL; decrease in average serum triglycerides from baseline ([4]; end of six months): about 41 mg/dl; decrease in average serum triglycerides from baseline ([4]; end of the first month): about 59 mg/dl; average decrease in serum LDL ([4]; all patients, end of the first month): about 13 mg/dl; serum HDL change ([4]; end of the first month): essentially unchanged; fraction of ingested substance absorbed into the bloodstream [5]: about 25%
OC[C@H]1O[C@@](CO)(O[C@H]2O[C@H](CO)[C@@H](O)[C@H](O)[C@H]2O)[C@@H](O)[C@@H]1O [sucrose, reference compound]	detected	31 ± 1 g	50±1 μm	40 ± 2 g	83±3 μm	promotes the development of obesity	326 ± 37 mg/dL	significantly elevated	markedly increased	822 ± 148 mg/dL	highest concentration	total adipose tissue mass (LDLr-/- mice [1]; male and female mice, compared to murine or TAG-enriched diets): increased; macrophage infiltration and lesion size in aortic roots (LDLr-/- mice [3]; immunohistochemistry, compared to TAG-fed mice): larger degree of macrophage infiltration and larger lesions; number and size of atherosclerotic lesions in aortic roots (LDLr-/- mice [3]; male and female mice, compared to TAG-fed mice): greater number and size; atherosclerotic surface area (LDLr-/- mice [3]; male and female mice, compared to control and TAG-enriched diet): striking increase
